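Grown in 96-well plates, cells were treated for 48 hours with each compound at five concentrations. Insufficient inhibition: endpoint recorded as highest concentration tested. Here, GI50 denotes the concentration required for 50% inhibition of growth. The concentration for full growth arrest is given as TGI.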
Columns and labels:
Assay in all cases: NCI-60 cell line screen, 48 h
SR leukemia = system: SR leukemia
T-47D breast = system: T-47D breast
SK-MEL-28 melanoma = system: SK-MEL-28 melanoma
MDA-MB-435 = system: MDA-MB-435
DU-145 prostate = system: DU-145 prostate
MDA-MB-231 breast = system: MDA-MB-231 breast
KM12 colon = system: KM12 colon
HS 578T breast = system: HS 578T breast
UO-31 renal = system: UO-31 renal
HOP-92 NSCLC = system: HOP-92 NSCLC
U251 CNS = system: U251 CNS
BT-549 breast = system: BT-549 breast
OVCAR-5 ovarian = system: OVCAR-5 ovarian
LOX IMVI melanoma = system: LOX IMVI melanoma
CCRF-CEM leukemia = system: CCRF-CEM leukemia
SN12C renal = system: SN12C renal
HCT-116 colon = system: HCT-116 colon
MALME-3M melanoma = system: MALME-3M melanoma
CAKI-1 renal = system: CAKI-1 renal
SW-620 colon = system: SW-620 colon
MCF7 breast = system: MCF7 breast
HCC-2998 colon = system: HCC-2998 colon
M14 melanoma = system: M14 melanoma
RPMI-8226 leukemia = system: RPMI-8226 leukemia
ACHN renal = system: ACHN renal
HL-60(TB) leukemia = system: HL-60(TB) leukemia
SF-268 CNS = system: SF-268 CNS
SNB-75 CNS = system: SNB-75 CNS
MOLT-4 leukemia = system: MOLT-4 leukemia
NCI/ADR-RES ovarian = system: NCI/ADR-RES ovarian
SF-539 CNS = system: SF-539 CNS
NCI-H460 lung = system: NCI-H460 lung
HCT-15 colon = system: HCT-15 colon
HT29 colon = system: HT29 colon
TK-10 renal = system: TK-10 renal
OVCAR-8 ovarian = system: OVCAR-8 ovarian
RXF 393 renal = system: RXF 393 renal
NCI-H226 lung = system: NCI-H226 lung
SK-MEL-5 melanoma = system: SK-MEL-5 melanoma
OVCAR-3 ovarian = system: OVCAR-3 ovarian
OVCAR-4 ovarian = system: OVCAR-4 ovarian
A498 renal = system: A498 renal
SK-MEL-2 melanoma = system: SK-MEL-2 melanoma
SF-295 CNS = system: SF-295 CNS
A549 NSCLC = system: A549 NSCLC
HOP-62 NSCLC = system: HOP-62 NSCLC
NCI-H522 lung = system: NCI-H522 lung
UACC-257 melanoma = system: UACC-257 melanoma
SNB-19 CNS = system: SNB-19 CNS
IGROV1 ovarian = system: IGROV1 ovarian
K-562 leukemia = system: K-562 leukemia
SK-OV-3 ovarian = system: SK-OV-3 ovarian
COLO 205 colon = system: COLO 205 colon
786-0 renal = system: 786-0 renal

Structure (SMILES): CC#Cc1nc2ccccc2c(=O)[nH]1
- GI50 (SR leukemia): 2.38 µM
- TGI (SR leukemia): 19 µM
- GI50 (T-47D breast): 5.71 µM
- TGI (T-47D breast): 23 µM
- GI50 (SK-MEL-28 melanoma): 4.55 µM
- TGI (SK-MEL-28 melanoma): 33.9 µM
- GI50 (MDA-MB-435): 2.04 µM
- TGI (MDA-MB-435): 5.35 µM
- GI50 (DU-145 prostate): 4.88 µM
- TGI (DU-145 prostate): > 100 µM
- GI50 (MDA-MB-231 breast): 2.1 µM
- TGI (MDA-MB-231 breast): 4.71 µM
- GI50 (KM12 colon): 2.68 µM
- TGI (KM12 colon): 6.58 µM
- GI50 (HS 578T breast): 4.92 µM
- TGI (HS 578T breast): > 100 µM
- GI50 (UO-31 renal): 3.18 µM
- TGI (UO-31 renal): 8.87 µM
- GI50 (HOP-92 NSCLC): 2.3 µM
- TGI (HOP-92 NSCLC): 7.74 µM
- GI50 (U251 CNS): 3.42 µM
- TGI (U251 CNS): 12.8 µM
- GI50 (BT-549 breast): 2.34 µM
- TGI (BT-549 breast): 5.18 µM
- GI50 (OVCAR-5 ovarian): 6.1 µM
- TGI (OVCAR-5 ovarian): 27.1 µM
- GI50 (LOX IMVI melanoma): 1.82 µM
- TGI (LOX IMVI melanoma): 3.43 µM
- GI50 (CCRF-CEM leukemia): 2.62 µM
- TGI (CCRF-CEM leukemia): 25.4 µM
- GI50 (SN12C renal): 3.02 µM
- TGI (SN12C renal): 9.8 µM
- GI50 (HCT-116 colon): 3.24 µM
- TGI (HCT-116 colon): 13 µM
- GI50 (MALME-3M melanoma): 4.21 µM
- TGI (MALME-3M melanoma): 15 µM
- GI50 (CAKI-1 renal): 6.15 µM
- TGI (CAKI-1 renal): 28.3 µM
- GI50 (SW-620 colon): 3.7 µM
- TGI (SW-620 colon): 23 µM
- GI50 (MCF7 breast): 3.07 µM
- TGI (MCF7 breast): > 100 µM
- GI50 (HCC-2998 colon): 1.99 µM
- TGI (HCC-2998 colon): 4.17 µM
- GI50 (M14 melanoma): 3.28 µM
- TGI (M14 melanoma): 9.71 µM
- GI50 (RPMI-8226 leukemia): 1.52 µM
- TGI (RPMI-8226 leukemia): 5.73 µM
- GI50 (ACHN renal): 3.65 µM
- TGI (ACHN renal): 23.3 µM
- GI50 (HL-60(TB) leukemia): 3.11 µM
- TGI (HL-60(TB) leukemia): 9.62 µM
- GI50 (SF-268 CNS): 3.17 µM
- TGI (SF-268 CNS): 11.1 µM
- GI50 (SNB-75 CNS): 2.09 µM
- TGI (SNB-75 CNS): 6.43 µM
- GI50 (MOLT-4 leukemia): 2.9 µM
- TGI (MOLT-4 leukemia): 8.51 µM
- GI50 (NCI/ADR-RES ovarian): 3.89 µM
- TGI (NCI/ADR-RES ovarian): 63.9 µM
- GI50 (SF-539 CNS): 2.76 µM
- TGI (SF-539 CNS): 9.14 µM
- GI50 (NCI-H460 lung): 3.89 µM
- TGI (NCI-H460 lung): 20.2 µM
- GI50 (HCT-15 colon): 2.73 µM
- TGI (HCT-15 colon): 8.91 µM
- GI50 (HT29 colon): 3.79 µM
- TGI (HT29 colon): 13.9 µM
- GI50 (TK-10 renal): 5.06 µM
- TGI (TK-10 renal): 26.3 µM
- GI50 (OVCAR-8 ovarian): 4.89 µM
- TGI (OVCAR-8 ovarian): 64.9 µM
- GI50 (RXF 393 renal): 1.57 µM
- TGI (RXF 393 renal): 3.27 µM
- GI50 (NCI-H226 lung): 2.3 µM
- TGI (NCI-H226 lung): 5.84 µM
- GI50 (SK-MEL-5 melanoma): 1.65 µM
- TGI (SK-MEL-5 melanoma): 3.32 µM
- GI50 (OVCAR-3 ovarian): 2.11 µM
- TGI (OVCAR-3 ovarian): 4.16 µM
- GI50 (OVCAR-4 ovarian): 4.15 µM
- TGI (OVCAR-4 ovarian): 27.5 µM
- GI50 (A498 renal): 1.38 µM
- TGI (A498 renal): 2.74 µM
- GI50 (SK-MEL-2 melanoma): 3.2 µM
- TGI (SK-MEL-2 melanoma): 7.21 µM
- GI50 (SF-295 CNS): 4.1 µM
- TGI (SF-295 CNS): 20.6 µM
- GI50 (A549 NSCLC): 4.9 µM
- TGI (A549 NSCLC): 34.2 µM
- GI50 (HOP-62 NSCLC): 3.18 µM
- TGI (HOP-62 NSCLC): 9.43 µM
- GI50 (NCI-H522 lung): 5.27 µM
- TGI (NCI-H522 lung): 16.7 µM
- GI50 (UACC-257 melanoma): 3.4 µM
- TGI (UACC-257 melanoma): 15.4 µM
- GI50 (SNB-19 CNS): 13.3 µM
- TGI (SNB-19 CNS): 52.3 µM
- GI50 (IGROV1 ovarian): 2.51 µM
- TGI (IGROV1 ovarian): 6.97 µM
- GI50 (K-562 leukemia): 3.93 µM
- TGI (K-562 leukemia): > 100 µM
- GI50 (SK-OV-3 ovarian): 41.7 µM
- TGI (SK-OV-3 ovarian): > 100 µM
- GI50 (COLO 205 colon): 2.03 µM
- TGI (COLO 205 colon): 3.7 µM
- GI50 (786-0 renal): 4.23 µM
- TGI (786-0 renal): 14.7 µM

— PubChem BioAssay (NCI)
